According to PubChem BioAssay AID2060617 (Molecular Pharmacology Branch, DTP, NCI, 2025):
Several values for one entry are separate records, joined by “and”; a condition that tells them apart may be missing. Equal entries are not always repeated.

Tested on: 485368-065-R4-J2-PDC spheroids with HUVEC/MSC, viability
Assay: Anticancer human tumor 485368-065-R4-J2-PDC patient-derived pancreatic carcinoma cell line growth inhibition [CLK]
Details: for viability, T/C: stronger effect = lower value
Method in brief: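 Patient-derived tumor cells grown as complex spheroids with HUVEC endothelial cells and mesenchymal stem cells, treated with drug combinations. Concentrations descend in half-log steps from near clinical Cmax, or from 10 microM if Cmax unknown.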

[1] = curve of first compound, second compound 0.0316 µM
[2] = curve of first compound, second compound 0.1 µM
[3] = curve of first compound, second compound 0.316 µM
[4] = curve of first compound, second compound 1 µM
[5] = curve of first compound, second compound 3.16 µM
[6] = curve of first compound, second compound 10 µM
[7] = second compound 0.0316 µM, first compound 0.0316 µM
[8] = second compound 0.0316 µM, first compound 0.1 µM
[9] = second compound 0.0316 µM, first compound 0.316 µM
[10] = second compound 0.0316 µM, first compound 1 µM
[11] = second compound 0.0316 µM, first compound 3.16 µM
[12] = second compound 0.0316 µM, first compound 10 µM
[13] = second compound 0.1 µM, first compound 0.0316 µM
[14] = second compound 0.1 µM, first compound 0.1 µM
[15] = second compound 0.1 µM, first compound 0.316 µM
[16] = second compound 0.1 µM, first compound 1 µM
[17] = second compound 0.1 µM, first compound 3.16 µM
[18] = second compound 0.1 µM, first compound 10 µM
[19] = second compound 0.316 µM, first compound 0.0316 µM
[20] = second compound 0.316 µM, first compound 0.1 µM
[21] = second compound 0.316 µM, first compound 0.316 µM
[22] = second compound 0.316 µM, first compound 1 µM
[23] = second compound 0.316 µM, first compound 3.16 µM
[24] = second compound 0.316 µM, first compound 10 µM
[25] = second compound 1 µM, first compound 0.0316 µM
[26] = second compound 1 µM, first compound 0.1 µM
[27] = second compound 1 µM, first compound 0.316 µM
[28] = second compound 1 µM, first compound 1 µM
[29] = second compound 1 µM, first compound 3.16 µM
[30] = second compound 1 µM, first compound 10 µM
[31] = second compound 3.16 µM, first compound 0.0316 µM
[32] = second compound 3.16 µM, first compound 0.1 µM
[33] = second compound 3.16 µM, first compound 0.316 µM
[34] = second compound 3.16 µM, first compound 1 µM
[35] = second compound 3.16 µM, first compound 3.16 µM
[36] = second compound 3.16 µM, first compound 10 µM
[37] = second compound 10 µM, first compound 0.0316 µM
[38] = second compound 10 µM, first compound 0.1 µM
[39] = second compound 10 µM, first compound 0.316 µM
[40] = second compound 10 µM, first compound 1 µM
[41] = second compound 10 µM, first compound 3.16 µM
[42] = second compound 10 µM, first compound 10 µM
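Further: spheroids exposed to compounds for seven days.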
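Wherever viability, T/C is given: 100% = DMSO vehicle control wells.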

COc1cccc2c1C(=O)c1c(O)c3c(c(O)c1C2=O)CC(O)(C(=O)CO)CC3OC1CC(N)C(O)C(C)O1 (stereo not given) was tested, and the viability, T/C (compound 0.0316 µM) was 98.8% and 100%, the viability, T/C (compound 0.1 µM) was 102% and 91.6% and the viability, T/C (compound 0.316 µM) was 67.6% and 66.2%. The viability, T/C (compound 1 µM) was 35% and 37.2%, the viability, T/C (compound 3.16 µM) was 7.33% and 9.65% and the viability, T/C (compound 10 µM) was 19.4% and 24.4%. The IC50 (curve of compound) was 574 nM and 566 nM.

For Nc1ccccc1NC(=O)c1ccc(CNC(=O)OCc2cccnc2)cc1 + CN1CCN(c2cc(C(=O)Nc3cc4cc(-c5cnn(C)c5)ccc4cn3)ccn2)CC1, the IC50 [1] was 6960 nM, the IC50 [2] was 7560 nM and the IC50 [3] was 2520 nM. It also gave an IC50 [4] of under 31.6 nM, an IC50 [5] of under 31.6 nM and an IC50 [6] of under 31.6 nM. For the same compound, the viability, T/C [7] was 88.7%, the viability, T/C [8] was 105% and the viability, T/C [9] was 91%. For the same compound, the viability, T/C [10] was 97.7%, the viability, T/C [11] was 91.6% and the viability, T/C [12] was 30.7%. For the same compound, the viability, T/C [13] was 109%, the viability, T/C [14] was 118% and the viability, T/C [15] was 99.1%. The viability, T/C [16] was 102%, the viability, T/C [17] was 93.1% and the viability, T/C [18] was 36.2%. It also gave a viability, T/C [19] of 81.1%, a viability, T/C [20] of 82.1% and a viability, T/C [21] of 66.8%. For the same compound, the viability, T/C [22] was 68.6%, the viability, T/C [23] was 45.5% and the viability, T/C [24] was 15.6%. For the same compound, the viability, T/C [25] was 1.64%, the viability, T/C [26] was 1.49% and the viability, T/C [27] was 1.21%. It also gave a viability, T/C [28] of 0.42%, a viability, T/C [29] of 0.41% and a viability, T/C [30] of 1.05%. It also gave a viability, T/C [31] of 1.12%, a viability, T/C [32] of 1.85% and a viability, T/C [33] of 3.03%. For the same compound, the viability, T/C [34] was 1.14%, the viability, T/C [35] was 1.31% and the viability, T/C [36] was 1.7%. For the same compound, the viability, T/C [37] was 1.94%, the viability, T/C [38] was 2.06% and the viability, T/C [39] was 1.81%. For the same compound, the viability, T/C [40] was 2.05%, the viability, T/C [41] was 1.05% and the viability, T/C [42] was 1.74%.

With COC1C=CCC(C)C(C)S(=O)(=O)NC(=O)c2ccc3c(c2)N(CC2CCC21)CC1(CCCc2cc(Cl)ccc21)CO3 (stereo not given) the viability, T/C (compound 0.0316 µM) was 92.5% and 105%, the viability, T/C (compound 0.1 µM) was 109% and 93.5% and the viability, T/C (compound 0.316 µM) was 101% and 105%. The viability, T/C (compound 1 µM) was 132% and 123%, the viability, T/C (compound 3.16 µM) was 105% and the viability, T/C (compound 10 µM) was 86.1% and 74.7%. The IC50 (curve of compound) was over 10000 nM.

In the case of NC(=O)C(=Cn1cnc(-c2cc(C(F)(F)F)cc(C(F)(F)F)c2)n1)c1cncnc1, the viability, T/C (compound 0.00949 µM) is reported as 94.3% and 112%, the viability, T/C (compound 0.03 µM) is reported as 120% and 123% and the viability, T/C (compound 0.0949 µM) is reported as 176% and 183%. For the same compound, the viability, T/C (compound 0.3 µM) was 193% and 186%, the viability, T/C (compound 0.949 µM) was 169% and 182% and the viability, T/C (compound 3 µM) was 122% and 136%. The IC50 (curve of compound) was over 3000 nM.

Compound CCCS(=O)(=O)Nc1ccc(F)c(C(=O)c2c[nH]c3ncc(-c4ccc(Cl)cc4)cc23)c1F + CN1CCN(c2cc(C(=O)Nc3cc4cc(-c5cnn(C)c5)ccc4cn3)ccn2)CC1 has an IC50 [1] of over 10000 nM, an IC50 [2] of over 10000 nM and an IC50 [3] of over 10000 nM. The IC50 [4] was under 31.6 nM, the IC50 [5] was under 31.6 nM and the IC50 [6] was under 31.6 nM. For the same compound, the viability, T/C [7] was 112%, the viability, T/C [8] was 98.8% and the viability, T/C [9] was 98.3%. It also gave a viability, T/C [10] of 111%, a viability, T/C [11] of 93.8% and a viability, T/C [12] of 111%. It also gave a viability, T/C [13] of 105%, a viability, T/C [14] of 112% and a viability, T/C [15] of 103%. The viability, T/C [16] was 103%, the viability, T/C [17] was 96.5% and the viability, T/C [18] was 94.5%. The viability, T/C [19] was 84.1%, the viability, T/C [20] was 99.5% and the viability, T/C [21] was 102%. The viability, T/C [22] was 96.2%, the viability, T/C [23] was 97.9% and the viability, T/C [24] was 64.2%. It also gave a viability, T/C [25] of 0.91%, a viability, T/C [26] of 2.34% and a viability, T/C [27] of 4.24%. It also gave a viability, T/C [28] of 1.9%, a viability, T/C [29] of 5.13% and a viability, T/C [30] of 3.9%. It also gave a viability, T/C [31] of 2.27%, a viability, T/C [32] of 3.77% and a viability, T/C [33] of 2.71%. It also gave a viability, T/C [34] of 3.9%, a viability, T/C [35] of 3.24% and a viability, T/C [36] of 5.64%. For the same compound, the viability, T/C [37] was 1.34%, the viability, T/C [38] was 4.22% and the viability, T/C [39] was 2.17%. For the same compound, the viability, T/C [40] was 3.01%, the viability, T/C [41] was 4.86% and the viability, T/C [42] was 6.03%.
